Reference: patent publication US8809345B2, “6-cycloalkyl-pyrazolopyrimidinones for the treatment of CNS disorders” (Boehringer Ingelheim International GmbH, priority 2011, dated 2014)

Columns and labels:
human PDE9A = human PDE9A (Homo sapiens, UniProt O76083); settings: isolated enzyme, concentrations of up to 100 micromolar (μM); cited from earlier work
Murine PDE9A = target: T1, Murine PDE9A (Mus musculus, UniProt O70628); settings: concentrations below 200 micromolar; cited from earlier work
T1 sequence (O70628 1-534): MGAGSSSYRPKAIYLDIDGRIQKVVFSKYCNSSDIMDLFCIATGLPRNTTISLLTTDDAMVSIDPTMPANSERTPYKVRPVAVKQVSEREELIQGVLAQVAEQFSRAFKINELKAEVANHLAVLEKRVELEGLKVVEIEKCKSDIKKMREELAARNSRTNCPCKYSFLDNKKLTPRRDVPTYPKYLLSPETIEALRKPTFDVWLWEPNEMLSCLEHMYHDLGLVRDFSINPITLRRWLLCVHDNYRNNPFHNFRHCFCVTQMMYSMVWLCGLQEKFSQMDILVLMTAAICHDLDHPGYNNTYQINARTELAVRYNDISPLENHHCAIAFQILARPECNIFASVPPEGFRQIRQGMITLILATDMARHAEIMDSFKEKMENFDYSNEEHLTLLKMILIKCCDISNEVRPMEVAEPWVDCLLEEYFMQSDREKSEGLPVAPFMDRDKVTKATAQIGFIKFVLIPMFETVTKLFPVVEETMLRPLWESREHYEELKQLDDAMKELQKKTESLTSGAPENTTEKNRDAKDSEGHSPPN

human PDE9A2 = target: T2, human PDE9A2 (Homo sapiens, UniProt O76083); test: PDE9A2 enzymatic activity assay (scintillation proximity assay); assay type: biochemical; settings: SPA, lysate of SF9 cells expressing human PDE9A2, 20 nanomolar cGMP
T2 construct: made in house; host or cells: Sf9 insect cells (crude lysate, not purified)
T2 sequence (O76083 1-533 isoform O76083-2): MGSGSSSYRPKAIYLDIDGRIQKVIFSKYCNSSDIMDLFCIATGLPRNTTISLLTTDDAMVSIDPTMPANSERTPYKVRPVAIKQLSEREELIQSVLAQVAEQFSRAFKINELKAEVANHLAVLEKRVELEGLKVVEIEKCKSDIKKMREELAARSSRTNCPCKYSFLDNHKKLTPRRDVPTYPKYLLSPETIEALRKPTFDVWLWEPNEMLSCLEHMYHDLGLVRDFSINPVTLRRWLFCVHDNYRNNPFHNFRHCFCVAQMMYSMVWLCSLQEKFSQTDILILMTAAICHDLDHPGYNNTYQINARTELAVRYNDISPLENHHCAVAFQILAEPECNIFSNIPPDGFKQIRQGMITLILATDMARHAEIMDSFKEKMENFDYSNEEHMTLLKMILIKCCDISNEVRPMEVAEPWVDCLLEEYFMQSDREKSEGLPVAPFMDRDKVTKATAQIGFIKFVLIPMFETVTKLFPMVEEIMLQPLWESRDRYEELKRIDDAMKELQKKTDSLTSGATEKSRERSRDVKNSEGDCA
Method: The total protein amount included in the assay varied upon infection and production efficacy of the SF9 cells and lay in the range of 0.1-100 ng.
The assays were run in 384-well format. The test reagents as well as the enzyme and the substrate were diluted in assay buffer. The assay buffer contained 50 mM Tris, 8.3 mM MgCl2, 1.7 mM EGTA, 0.1% BSA, 0.05% Tween 20; the pH of assay buffer was adjusted to 7.5.
(§1) IC50 can be calculated with GraphPadPrism or other suitable software setting the positive control as 100 and the negative control as 0. For calculation of IC50, dilutions of the test compounds […] are selected and tested following the aforementioned protocol.

PDE1C = PDE1C (Homo sapiens, UniProt Q14123); test: PDE1C assay, run analogously to the PDE9A2 assay; assay type: biochemical; settings: ratio PDE1C vs PDE9A2
Description: The reaction can be stopped by applying the same inhibitor as the one that is outlined above (1-(2-Chlorophenyl)-6-[(2R)-3,3,3-trifluoro-2-methyl-propyl]-1,5-dihydro-4H-pyrazolo[3,4-d]pyrimidine-4-one).
as §1
Selectivity is the ratio (IC50 for PDE1C inhibition [nanomolar (nM)])/(IC50 for PDE9A2 inhibition [nanomolar (nM)]).

Chain of human PDE9A (O76083 whole entry): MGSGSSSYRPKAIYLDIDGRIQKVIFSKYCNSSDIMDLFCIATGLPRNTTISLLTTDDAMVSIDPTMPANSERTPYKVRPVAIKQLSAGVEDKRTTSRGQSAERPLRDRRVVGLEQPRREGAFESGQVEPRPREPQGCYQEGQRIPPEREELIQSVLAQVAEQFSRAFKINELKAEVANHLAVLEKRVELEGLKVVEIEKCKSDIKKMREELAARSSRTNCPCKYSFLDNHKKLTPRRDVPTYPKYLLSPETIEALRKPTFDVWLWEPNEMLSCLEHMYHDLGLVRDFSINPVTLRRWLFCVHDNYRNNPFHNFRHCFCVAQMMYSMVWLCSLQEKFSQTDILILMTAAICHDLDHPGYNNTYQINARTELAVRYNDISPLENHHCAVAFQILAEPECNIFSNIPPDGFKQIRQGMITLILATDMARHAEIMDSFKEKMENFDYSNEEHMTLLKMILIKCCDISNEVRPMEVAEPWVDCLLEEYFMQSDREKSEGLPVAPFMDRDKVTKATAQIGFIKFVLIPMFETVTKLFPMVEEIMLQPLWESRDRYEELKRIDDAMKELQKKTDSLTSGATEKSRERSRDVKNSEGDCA

With CCOC(=O)C1=C[C@]2(CC)CCCN3CCc4c(n1c1ccccc41)[C@@H]32 [vinpocetine] as the compound, how does the “inhibition of human PDE9A” value (human PDE9A) read?
Its value is “no inhibition”.

Which “inhibition of human PDE9A” value (human PDE9A) does the source give for OCCN(CCO)c1nc(N2CCCCC2)c2nc(N(CCO)CCO)nc(N3CCCCC3)c2n1 [dipyridamole] here?
Its value is “no inhibition”.

With COc1ccc(C2CNC(=O)C2)cc1OC1CCCC1 (stereo not shown) [rolipram] as the compound, how does the “inhibition of human PDE9A” value (human PDE9A) read?
Its value is “no inhibition”.

What does the source list for CC(C)Cn1c(=O)n(C)c(=O)c2[nH]cnc21 [IBMX]?
inhibition of human PDE9A (human PDE9A): no inhibition; inhibition of murine PDE9A (Murine PDE9A): not inhibited

With O=c1[nH]c([C@@H]2CC[C@H]2c2cn3ccccc3n2)nc2c1cnn2C1CCC(F)(F)CC1 (racemic) [Example 4] as the compound, how does the IC50 (human PDE9A2) read?
The IC50 was 6 nM.

And the “Selectivity (IC50 for PDE1C inhibition / IC50 for PDE9A2 inhibition)” value (PDE1C)?
Its value is 123.

With O=c1[nH]c([C@@H]2CC[C@H]2c2cn3ccc(Cl)cc3n2)nc2c1cnn2C1CCC(F)(F)CC1 (racemic) [Example 5] as the compound, how does the IC50 (human PDE9A2) read?
The IC50 was 10 nM.

And the “Selectivity (IC50 for PDE1C inhibition / IC50 for PDE9A2 inhibition)” value (PDE1C)?
Its value is 40.

With CC(=O)Nc1ccc(-c2c[nH]c(=O)cn2)cc1 [SKF94120] as the compound, how does the “inhibition of human PDE9A” value (human PDE9A) read?
The value was “no inhibition”.
